# Data taken from patent US11832615B2 (priority 2013, dated 2023).
# Read-outs that look alike come from different tables or passages of the source.
# Tests used:
# Ralstonia solanacearum [1] = assay type: in vivo; details: tomato, 33 days after transplantation
# Ralstonia solanacearum [2] = assay type: in vivo; details: tomato, 17 days after transplantation, 10 mgAI/m^2
smiles,measurement,setting,value
"CCOP(=O)(SC(C)CC)SC(C)CC (stereo not shown) [Cadusafos, cadusafos]",Controlling value (%),"Ralstonia solanacearum [1]; 900 mgAI/m^2, with Paecilomyces fumosoroseus 3 × 10^9 CFU/m^2 (+)",100%
same,Controlling value (%),"Ralstonia solanacearum [1]; 900 mgAI/m^2, without Paecilomyces fumosoroseus (−)",50%
"COP(=S)(OC)Oc1ccc([N+](=O)[O-])c(C)c1 [MEP, MEP (fenitrothion)]",Controlling value (%),Ralstonia solanacearum [2]; with Paecilomyces fumosoroseus 3 × 10^9 CFU/m^2 (+),75%
same,Controlling value (%),Ralstonia solanacearum [2]; without Paecilomyces fumosoroseus (−),0%
"CCOP(=O)(SC(C)CC)N1CCSC1=O (stereo not shown) [Fosthiazate, fosthiazate]",Controlling value (%),"Ralstonia solanacearum [1]; 300 mgAI/m^2, with Paecilomyces fumosoroseus 3 × 10^9 CFU/m^2 (+)",85%
same,Controlling value (%),"Ralstonia solanacearum [1]; 300 mgAI/m^2, without Paecilomyces fumosoroseus (−)",0%
"O=S(=O)(CCC(F)=C(F)F)c1ncc(Cl)s1 [Fluensulfone, fluensulfone]",Controlling value (%),"Ralstonia solanacearum [1]; 400 mgAI/m^2, with Paecilomyces fumosoroseus 3 × 10^9 CFU/m^2 (+)",85%
same,Controlling value (%),"Ralstonia solanacearum [1]; 400 mgAI/m^2, without Paecilomyces fumosoroseus (−)",0%
"O=C(NCCc1ncc(C(F)(F)F)cc1Cl)c1ccccc1C(F)(F)F [Fluopyram, fluopyram]",Controlling value (%),"Ralstonia solanacearum [1]; 10 mgAI/m^2, with Paecilomyces fumosoroseus 3 × 10^9 CFU/m^2 (+)",62%
same,Controlling value (%),"Ralstonia solanacearum [1]; 10 mgAI/m^2, without Paecilomyces fumosoroseus (−)",0%
